Results taken from BindingDB's records for doi:10.1074/jbc.M113.507756 (University of Otago Christchurch, 2013).

Key:
Lactoperoxidase = Lactoperoxidase (Bos taurus, UniProt P80025); experiment: LPO/TPO Selectivity Assay
Procedure: (§1) The halogenation activities of LPO (EC 1.11.1.7) and TPO (EC 1.11.1.8) were determined using a modified method of that described previously [Ferrari et al., J. Inorg. Biochem., 68:61-69].

Thyroid peroxidase = molecular target: T1, Thyroid peroxidase (Homo sapiens, UniProt P07202); experiment: LPO/TPO Selectivity Assay
T1 sequence (P07202 whole entry): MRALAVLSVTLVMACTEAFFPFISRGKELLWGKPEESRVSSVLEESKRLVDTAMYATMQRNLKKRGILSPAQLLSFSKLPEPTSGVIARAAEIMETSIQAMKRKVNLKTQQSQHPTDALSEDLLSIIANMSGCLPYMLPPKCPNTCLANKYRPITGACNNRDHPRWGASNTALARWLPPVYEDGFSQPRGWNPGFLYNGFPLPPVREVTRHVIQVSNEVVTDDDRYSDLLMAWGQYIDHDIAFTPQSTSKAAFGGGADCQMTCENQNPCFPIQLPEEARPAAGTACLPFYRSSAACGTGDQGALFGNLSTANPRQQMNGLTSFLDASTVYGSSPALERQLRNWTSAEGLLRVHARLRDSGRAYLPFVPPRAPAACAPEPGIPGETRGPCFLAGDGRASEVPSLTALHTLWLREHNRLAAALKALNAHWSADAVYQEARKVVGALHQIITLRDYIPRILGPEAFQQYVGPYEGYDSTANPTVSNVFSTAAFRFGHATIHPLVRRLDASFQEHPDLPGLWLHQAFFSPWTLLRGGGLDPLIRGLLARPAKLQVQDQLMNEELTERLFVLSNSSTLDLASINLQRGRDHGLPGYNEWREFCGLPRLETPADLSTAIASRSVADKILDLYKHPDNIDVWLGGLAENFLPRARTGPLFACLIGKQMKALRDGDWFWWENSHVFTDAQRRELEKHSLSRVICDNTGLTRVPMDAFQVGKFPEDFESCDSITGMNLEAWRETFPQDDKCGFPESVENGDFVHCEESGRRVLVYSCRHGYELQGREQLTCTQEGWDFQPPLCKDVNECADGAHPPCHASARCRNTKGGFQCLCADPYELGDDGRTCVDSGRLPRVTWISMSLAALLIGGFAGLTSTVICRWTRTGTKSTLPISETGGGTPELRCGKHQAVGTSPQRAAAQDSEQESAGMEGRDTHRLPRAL
Procedure: as §1

Myeloperoxidase [1] = molecular target: T2, Myeloperoxidase (Homo sapiens, UniProt P05164); experiment: Myeloperoxidase Assay; settings: pH 6.5
T2 sequence (P05164 whole entry): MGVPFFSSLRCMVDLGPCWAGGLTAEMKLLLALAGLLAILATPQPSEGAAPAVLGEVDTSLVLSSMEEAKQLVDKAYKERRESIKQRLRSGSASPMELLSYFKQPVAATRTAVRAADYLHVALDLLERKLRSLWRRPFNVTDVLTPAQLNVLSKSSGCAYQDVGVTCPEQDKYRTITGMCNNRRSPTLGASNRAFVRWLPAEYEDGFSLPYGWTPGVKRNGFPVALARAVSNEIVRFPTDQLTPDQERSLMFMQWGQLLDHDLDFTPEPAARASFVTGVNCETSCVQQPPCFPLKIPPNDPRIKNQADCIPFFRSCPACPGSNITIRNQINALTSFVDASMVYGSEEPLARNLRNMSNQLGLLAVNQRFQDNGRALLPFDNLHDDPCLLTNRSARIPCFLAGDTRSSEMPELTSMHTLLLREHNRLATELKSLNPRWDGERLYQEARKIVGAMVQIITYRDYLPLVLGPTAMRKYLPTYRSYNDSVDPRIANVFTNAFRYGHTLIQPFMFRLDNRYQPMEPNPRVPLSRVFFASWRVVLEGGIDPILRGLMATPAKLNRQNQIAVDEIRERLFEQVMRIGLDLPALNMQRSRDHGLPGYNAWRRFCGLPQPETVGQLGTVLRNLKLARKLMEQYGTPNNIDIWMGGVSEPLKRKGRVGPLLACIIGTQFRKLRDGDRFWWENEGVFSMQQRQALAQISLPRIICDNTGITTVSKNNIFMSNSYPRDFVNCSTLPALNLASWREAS
Procedure: Assays were performed at 22 °C with 2 nM MPO and 10 μM hydrogen peroxide (H2O2) in 20 mM NaH2PO4 buffer, pH 6.5 containing 140 mM NaCl, 10 mM taurine, and 1 mM L-tyrosine. Inhibitor compounds were preincubated with MPO for 15 min prior to the addition of H2O2, and the accumulation of taurine chloramine was determined after 1 min.

Myeloperoxidase [2] = molecular target: T2, Myeloperoxidase; experiment: Surface Plasmon Resonance (SPR); settings: pH 5
Procedure: Binding kinetics were determined by surface plasmon resonance (SPR) using a Biacore S51 (Biacore, Uppsala, Sweden). MPO (50 μg/ml dissolved in 10 mM sodium acetate, pH 5.0) was immobilized onto the surface of CM5 sensor chips (Biacore) using surface amine coupling. One of the spots on the sensor surface was left without MPO to control for nonspecific binding. The signal observed in response to analyte binding was as expected linearly related to the amount of immobilized ligand, and 10,000 response units was routinely used to characterize compoundbinding (data not shown). Compounds were dissolved in binding buffer (10 mM HEPES, pH 7.4, 150 mM NaCl, 3 mM Na2EDTA, 0.005% (w/v) surfactant P20, 1% (v/v) DMSO final), and association was assessed during 60-210-s injections. After this time, analyte injection was terminated, and the chip surface was perfused with binding buffer at 30 μl/min for 4-12 min to monitor compound dissociation.

| IC50 (Lactoperoxidase) [nM] | IC50 (Thyroid peroxidase) [nM] | IC50 (Myeloperoxidase [1]) [nM] | Kd (Myeloperoxidase [2]) [nM] | Structure (SMILES) |
| --- | --- | --- | --- | --- |
| 6300 | 1590 | – | – | O=C(NO)c1c[nH]c(NCc2cc(C(F)(F)F)cc(C(F)(F)F)c2)nc1=O [2-(3,5-bistrifluoromethylbenzylamino)-6-oxo-1H-pyrimidine-5-carbohydroxamic acid (HX1)] |
| 2000 | 1590 | 790 | 2000 | O=C(NO)c1c[nH]c(NCc2ccccc2)nc1=O [2-(benzylamino)-6-oxo-3H-pyrimidine-5-carbohydroxamic acid (HX3)] |
| 40 | 63 | 25.1 | 63 | O=C(NO)c1ccc(Cc2ccccc2)cc1O [4-benzyl-2-hydroxybenzenecarbohydroxamic acid (HX2)] |
| – | 2000 | 25000 | – | O=C(NO)c1ccccc1O [Salicylic hydroxamic acid] |
